Data from ChEMBL document CHEMBL5120920, “A Mitochondria-Targeted Phenylbutyric Acid Prodrug Confers Drastically Improved Anticancer Activities” (J Med Chem, 2022).
Activity calls are given as the source filed them. No cut-off for these calls is given here.

Legend:
[1] = system: A-375; test: Induction of cell cycle arrest in human A-375 cells assessed as accumulation at G1 phase at 7.5 uM incubated for 24 hrs by PI staining based flow cytometry analysis (reference value: 68.07 %); format: functional
[2] = system: A-375; test: Induction of cell cycle arrest in human A-375 cells assessed as accumulation at G1 phase at 5 uM incubated for 24 hrs by PI staining based flow cytometry analysis (reference value: 68.07 %); format: functional
[3] = system: A-375; test: Antiproliferative activity against human A-375 cells assessed as inhibition of cell viability incubated for 72 hrs by MTT assay; format: functional, cell-based; details: A-375, 72 h
[4] = system: MCF7; test: Antiproliferative activity against human MCF7 cells assessed as inhibition of cell viability incubated for 72 hrs by MTT assay; format: functional, cell-based; details: MCF7, 72 h
[5] = Toxicity in BALB/c mouse assessed as change in body weight at 100 mg/kg, iv administered for 7 days and measured once per 2 days; format: organism-based; details: in vivo, 168 h, time 7 day
[6] = Toxicity in BALB/c mouse assessed as effect on body weight at 125 to 200 mg/kg, iv administered for 7 days and measured once per 2 days; format: organism-based; details: in vivo, 168 h, dose 125-200 mg/kg, time 7 day
[7] = Toxicity in BALB/c mouse assessed as histopathological changes in liver at 50 to 100 mg/kg, iv measured after 7 days by H and E staining based assay; format: organism-based; details: in vivo, 168 h, dose 50-100 mg/kg, time 7 day
[8] = Toxicity in BALB/c mouse assessed as histopathological changes in kidney at 50 to 100 mg/kg, iv measured after 7 days by H and E staining based assay; format: organism-based; details: in vivo, 168 h, dose 50-100 mg/kg, time 7 day
[9] = Toxicity in BALB/c mouse assessed as histopathological changes in heart at 50 to 100 mg/kg, iv measured after 7 days by H and E staining based assay; format: organism-based; details: in vivo, 168 h, dose 50-100 mg/kg, time 7 day
[10] = Toxicity in BALB/c mouse at 200 mg/kg, iv administered for 7 days; format: organism-based; details: in vivo, 168 h, time 7 day
[11] = Stability of the compound in Tris-HCL buffer at pH 7.4 measured for 24 hrs by RP-HPLC-UV analysis; format: physicochemical; details: pH 7.4, 24 h
[12] = Stability of the compound assessed as Carboxylesterase (unknown origin) mediated compound hydrolysis measured upto 150 mins by RP-HPLC-UV analysis; format: ADME; details: human, 2.5 h
[13] = system: A-375; test: Cytotoxicity against human A-375 cells assessed as reduction in cell vaibility measured at 48 hrs in presence of BNPP by MTT assay; format: functional, cell-based; details: A-375, 48 h
[14] = system: A-375; test: Cytotoxicity against human A-375 cells assessed as reduction in cell vaibility measured at 72 hrs in presence of BNPP by MTT assay; format: functional, cell-based; details: A-375, 72 h
[15] = Drug uptake in human A-375 cells measured at 10 mins by RP-HPLC-UV analysis; format: ADME, cell-based; details: a-375, 10 min
[16] = Apparent permeability across basolateral to apical side in human Caco-2 cells at 2 uM measured after 2 hrs by LC-MS/MS analysis; format: ADME, cell-based
[17] = Drug uptake in human A-375 cells mitochondria assessed as fold increase at 10 uM measured after 4 hrs relative to PBA; format: ADME; details: a-375, 4 h
[18] = target: Pyruvate dehydrogenase kinase (Homo sapiens) (UniProt Q15119+Q15120+Q16654+Q15118); test: Inhibition of PDK in human A-375 cells assessed as reduction in PDH phosphorylation at ser293 residue at 5 to 20 uM after 24 to 48 hrs; format: cell-based; details: dose 5-20 µM, time 24-48 hrs
[19] = system: A-375; test: Induction of mitochondrial membrane depolarization in human A-375 cells assessed as increase in JC-1 monomer at 10 uM incubated for 4 hrs by JC-1 staining based flow cytometry analysis; format: functional, cell-based
[20] = system: MCF7; test: Induction of mitochondrial membrane hyperpolarization in human MCF7 cells assessed as JC-1 level at 2.5 to 10 uM incubated for 4 hrs by JC-1 staining based flow cytometry analysis relative to control; format: functional; details: dose 2.5-10 µM
[21] = system: A549; test: Induction of mitochondrial membrane hyperpolarization in human A549 cells assessed as JC-1 level at 2.5 to 10 uM incubated for 4 hrs by JC-1 staining based flow cytometry analysis relative to control; format: functional; details: dose 2.5-10 µM
[22] = system: MDA-MB-231; test: Induction of mitochondrial membrane hyperpolarization in human MDA-MB-231 cells assessed as JC-1 level at 2.5 to 10 uM incubated for 4 hrs by JC-1 staining based flow cytometry analysis relative to control; format: functional; details: dose 2.5-10 µM
[23] = system: A-375; test: Induction of mitochondrial membrane depolarization in human A-375 cells assessed as increase in JC-1 monomer incubated for 4 hrs by JC-1 staining based flow cytometry analysis; format: functional, cell-based; details: dose 2.5-10 µM, DDE = dose-dependent effect
[24] = system: A-375; test: Induction of apoptosis in human A-375 cells assessed as apoptotic cells at 10 uM measured at 24 hrs by Annexin V FITC/PI staining based flow cytometry analysis relative to control; format: functional
[25] = system: A-375; test: Induction of cell cycle arrest in human A-375 cells assessed as accumulation at S phase at 2.5 uM incubated for 24 hrs by PI staining based flow cytometry analysis (reference value: 24.01 %); format: functional
[26] = system: A-375; test: Induction of cell cycle arrest in human A-375 cells assessed as accumulation at S phase at 7.5 uM incubated for 24 hrs by PI staining based flow cytometry analysis (reference value: 24.01 %); format: functional
[27] = system: A-375; test: Inhibition of cell migration in human A-375 cells incubated for 24 hrs by wound healing assay; format: functional, cell-based; details: dose 1.5-2.5 µM, DDE = dose-dependent effect
[28] = system: A-375; test: Effect on mitochondrial bio-energestics in human A-375 cells assessed as increase in OCR/ECRA ratio at 0.25 to 1 uM measured after 4 hrs; format: functional, cell-based; details: dose 0.25-1 µM
[29] = system: A-375; test: Inhibition of glycolysis in human A-375 cells assessed as reduction in extracellular acidification rate at 0.25 to 1 uM measured after 4 hrs; format: functional, cell-based; details: dose 0.25-1 µM
[30] = system: A-375; test: Inhibition of glycolysis in human A-375 cells assessed as reduction in lactate formation at 0.25 to 5 uM incubated for 8 hrs; format: functional, cell-based; details: dose 0.25-5 µM
[31] = Toxicity in nude mouse xenografted with human A-375 cells assessed as body weight loss at 10 to 40 mg/kg, ip measured once every two days for 14 days; format: organism-based; details: in vivo, 336 h, dose 10-40 mg/kg, time 14 day
[32] = system: A-375; test: Antitumor activity against human A-375 cells xenografted in nude mouse assessed as reduction in tumor weight at 10 to 40 mg/kg, ip measured once every two days for 14 days; format: functional, organism-based; details: dose 10-40 mg/kg, time 14.0 day
[33] = system: A-375; test: Antitumor activity against human A-375 cells xenografted in nude mouse assessed as shrinkage of tumor tissue at 10 to 40 mg/kg, ip measured once every two days for 14 days; format: functional, organism-based; details: dose 10-40 mg/kg, time 14.0 day
[34] = system: A-375; test: Antitumor activity against human A-375 cells xenografted in nude mouse assessed as tumor inhibition ratio at 40 mg/kg, ip measured once every two days for 14 days; format: functional; details: A-375, 336 h, time 14 day, read-out: TGI
[35] = system: A-375; test: Antitumor activity against human A-375 cells xenografted in nude mouse assessed as decrease in bcl-2 expression at 40 mg/kg, ip measured once every two days for 14 days by immunohistochemistry assay; format: functional, organism-based; details: time 14.0 day

O=C(CCCCCCCCC[P+](c1ccc(C(F)(F)F)cc1)(c1ccc(C(F)(F)F)cc1)c1ccc(C(F)(F)F)cc1)NC(COC(=O)CCCc1ccccc1)(COC(=O)CCCc1ccccc1)COC(=O)CCCc1ccccc1.[Br-]
Activity [1]: 80.37% | Activity [2]: 75.69% | IC50 [3]: 2.22 µM | IC50 [4]: 6.02 µM | Activity [5]: Non-Toxic | Activity [6]: Non-Toxic | Activity [7]: Non-Toxic | Activity [8]: Non-Toxic | Activity [9]: Non-Toxic | Activity [10]: Non-Toxic | Stability [11]: Stable | Stability [12]: Unstable | IC50 [13]: 18.9 µM | IC50 [14]: 14.1 µM | Drug uptake [15]: Active | Papp B→A at 2 h, 2 µM [16]: 16.8 ×10⁻⁶ cm/s | Drug uptake [17]: Active | inhibition [18]: Active | Activity [19]: Active | Activity [20]: 3.6% | Activity [21]: 5.01% | Activity [22]: 3.27% | Activity [23]: Dde | Activity [24]: 7% | Activity [25]: 16.71% | Activity [26]: 11.75% | inhibition [27]: Dde | Activity [28]: Active | inhibition [29]: Active | inhibition [30]: Active | Activity [31]: Non-Toxic | Activity [32]: Active | Activity [33]: Active | inhibition in vivo at 40 mg/kg [34]: 76% | Activity [35]: Active
